This note sets out measurements from patent US20210196678A1, “SELECTIVE ANDROGEN RECEPTOR DEGRADER (SARD) LIGANDS AND METHODS OF USE THEREOF” (University of Tennessee Research Foundation, priority 2018, published 2021).

The structures appear in SMILES notation. Where “and” joins values, the source holds several entries; their conditions need not be identical. Equal values may be shown once. Entries after “also recorded” stand apart in the source; their conditions may differ.

A short description of data set [1]: SARD compound serum concentrations in Hershberger rats (LC-MS/MS). The following applies: for Conc of 1065: serum of individual rats, 24-30 hours after the last dose, standards in nM.
The nature of data set [2]: HLM metabolism (half-life). The following applies: for HLM Metabolism (H.L. min): human liver microsomes half-life. The data set is classed as in vitro ADME, human. Here is the method: (§1) Table 4 reports the in vitro efficacy (transactivation/degradation) and metabolism (rat liver microsomes (RLM) and human LM (HLM) half-lives) data, in vivo efficacy (S.V. and prostate % diff in rats) and serum concentration in rats for all the compounds in the 20 mg/kg Hershberger experiment. […].
Background: Liver microsomes are a subcellular fraction often used to study metabolism.

The nature of data set [3]: RLM metabolism (half-life). The following applies: rat liver microsomes half-life. The data set is classed as in vitro ADME. The protocol: as §1
The test system of data set [4] is Intact Sprague Dawley rats. Description: Hershberger assay, seminal vesicles and prostate weights. The data set is classed as in vivo, rat.
Description: Dosing solutions were prepared in 20% DMSO+80% PEG. Fourteen days after the initiation of treatment, animals were sacrificed and tissue weights were recorded. Body weights were measured on day 1 and at the time of sacrifice. Tissue weights were normalized to body weight and represented as percent change from vehicle-treated animals.
Data set [5] addresses T1, hAR-LBD (633-919) (Homo sapiens, UniProt P10275).
T1 construct: GST (N); made in house
T1 sequence (P10275 634-920): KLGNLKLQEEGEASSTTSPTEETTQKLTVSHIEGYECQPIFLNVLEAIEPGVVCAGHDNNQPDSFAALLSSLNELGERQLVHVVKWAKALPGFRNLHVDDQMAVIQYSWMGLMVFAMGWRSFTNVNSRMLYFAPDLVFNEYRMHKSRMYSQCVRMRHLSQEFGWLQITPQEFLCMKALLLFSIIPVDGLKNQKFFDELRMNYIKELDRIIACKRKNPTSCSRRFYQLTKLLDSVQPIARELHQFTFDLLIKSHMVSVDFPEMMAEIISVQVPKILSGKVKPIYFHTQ
Description: Ligand binding assay, GST-AR-LBD with [3H]mibolerone.
Description: Objective: To determine SARDs binding affinity to the AR-LBD.
Non-specific binding was then subtracted from total binding to determine specific binding and non-linear regression for ligand binding curve with one site saturation to determine the Kd of mibolerone.
Following incubation, the ligand bound AR-LBD complex was isolated using Bio Gel HT® hydroxyapatite, washed and counted in a scintillation counter after adding scintillation cocktail.

Data set [6] has as its target AR wildtype (wt) (Homo sapiens, UniProt P10275). Description: Transactivation assay with wt AR (GRE-LUC luciferase). The data set is classed as cell-based.
Description: COS7 cells were transfected with 0.25 μg GRE-LUC, 0.01 g CMV-renilla LUC, and 25 ng CMV-hAR using Lipofectamine in OptiMEM® medium. […] Firefly luciferase values were normalized to renilla luciferase values.
Firefly luciferase values were normalized to renilla luciferase values.
Human AR cloned into CMV vector backbone was used for the transactivation study. HEK-293 cells were plated at 120,000 cells per well of a 24 well plate in DME+5% csFBS. […] Data are represented as IC50 obtained from four parameter logistics curve.
Data set [7] relates to full length AR. As to the kind of experiment: LNCaP or AD1 degradation (full length AR, Western blot). The data set is classed as cell-based.
Description: The numbers under each lane represents the % change from vehicle. The bands were quantified using ImageJ® software. For each lane, the AR band was divided by GAPDH band and the % difference from vehicle was calculated and represented under each lane. The numbers shown are 0 (no degradation) or represented as decreases in AR levels normalized for GAPDH levels (some values represented as positive but still indicate degradation).
Method: LNCaP or AD1 cells expressing full length AR were plated at 750,000-1,000,000 cells/well of a 6 well plate in growth medium (RPMI+10% FBS). Twenty four hours after plating, medium was changed to RPMI+1% csFBS without phenol red and maintained in this medium for 2 days. […] Protein was extracted using salt-containing lysis buffer with three freeze-thaw cycles. Protein concentration was estimated and five microgram of total protein was loaded on a SDS-PAGE, fractionated, and transferred to a PVDF membrane. […]
The numbers under each lane represents the % change from vehicle. The bands were quantified using ImageJ software. For each lane, the AR band was divided by GAPDH band and the % difference from vehicle was calculated and represented under each lane The numbers shown are 0 (no degradation) or represented as decreases in AR levels normalized for GAPDH levels (some values represented as positive but still indicate degradation).
The target of data set [8] is T2, PR (Homo sapiens, UniProt P06401).
T2 sequence (P06401 1-933): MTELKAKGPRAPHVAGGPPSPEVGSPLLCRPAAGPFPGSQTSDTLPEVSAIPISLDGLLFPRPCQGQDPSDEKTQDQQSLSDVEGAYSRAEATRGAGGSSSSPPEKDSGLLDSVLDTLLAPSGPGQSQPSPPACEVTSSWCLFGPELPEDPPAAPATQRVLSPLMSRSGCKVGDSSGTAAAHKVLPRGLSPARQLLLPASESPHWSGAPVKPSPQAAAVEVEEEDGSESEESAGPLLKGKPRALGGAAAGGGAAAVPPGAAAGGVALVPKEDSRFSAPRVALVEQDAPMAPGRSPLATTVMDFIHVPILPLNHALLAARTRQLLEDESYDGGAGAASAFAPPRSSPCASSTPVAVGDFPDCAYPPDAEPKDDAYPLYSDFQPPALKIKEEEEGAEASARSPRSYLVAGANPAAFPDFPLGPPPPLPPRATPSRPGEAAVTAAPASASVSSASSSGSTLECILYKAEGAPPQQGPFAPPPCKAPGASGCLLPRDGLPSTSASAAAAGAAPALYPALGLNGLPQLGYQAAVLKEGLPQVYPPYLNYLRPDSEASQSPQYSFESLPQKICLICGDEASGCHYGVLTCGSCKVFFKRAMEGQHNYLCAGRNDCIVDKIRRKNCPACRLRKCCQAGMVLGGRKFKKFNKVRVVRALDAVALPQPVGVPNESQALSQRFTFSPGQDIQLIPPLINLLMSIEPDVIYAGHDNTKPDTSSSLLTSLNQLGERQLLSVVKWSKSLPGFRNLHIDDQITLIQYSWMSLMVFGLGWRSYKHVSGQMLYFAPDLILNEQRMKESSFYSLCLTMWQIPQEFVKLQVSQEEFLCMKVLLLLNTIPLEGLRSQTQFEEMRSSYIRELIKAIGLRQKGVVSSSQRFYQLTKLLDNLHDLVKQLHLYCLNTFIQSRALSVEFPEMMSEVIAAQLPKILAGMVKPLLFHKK
To be noted: positive control.

[9] abbreviates: Table 2, rats, 20 mg/kg daily for 13 days.
The mark [10] stands for this setting: 20 mg/kg Hershberger experiment.

Chain of AR wildtype (wt) (P10275 whole entry): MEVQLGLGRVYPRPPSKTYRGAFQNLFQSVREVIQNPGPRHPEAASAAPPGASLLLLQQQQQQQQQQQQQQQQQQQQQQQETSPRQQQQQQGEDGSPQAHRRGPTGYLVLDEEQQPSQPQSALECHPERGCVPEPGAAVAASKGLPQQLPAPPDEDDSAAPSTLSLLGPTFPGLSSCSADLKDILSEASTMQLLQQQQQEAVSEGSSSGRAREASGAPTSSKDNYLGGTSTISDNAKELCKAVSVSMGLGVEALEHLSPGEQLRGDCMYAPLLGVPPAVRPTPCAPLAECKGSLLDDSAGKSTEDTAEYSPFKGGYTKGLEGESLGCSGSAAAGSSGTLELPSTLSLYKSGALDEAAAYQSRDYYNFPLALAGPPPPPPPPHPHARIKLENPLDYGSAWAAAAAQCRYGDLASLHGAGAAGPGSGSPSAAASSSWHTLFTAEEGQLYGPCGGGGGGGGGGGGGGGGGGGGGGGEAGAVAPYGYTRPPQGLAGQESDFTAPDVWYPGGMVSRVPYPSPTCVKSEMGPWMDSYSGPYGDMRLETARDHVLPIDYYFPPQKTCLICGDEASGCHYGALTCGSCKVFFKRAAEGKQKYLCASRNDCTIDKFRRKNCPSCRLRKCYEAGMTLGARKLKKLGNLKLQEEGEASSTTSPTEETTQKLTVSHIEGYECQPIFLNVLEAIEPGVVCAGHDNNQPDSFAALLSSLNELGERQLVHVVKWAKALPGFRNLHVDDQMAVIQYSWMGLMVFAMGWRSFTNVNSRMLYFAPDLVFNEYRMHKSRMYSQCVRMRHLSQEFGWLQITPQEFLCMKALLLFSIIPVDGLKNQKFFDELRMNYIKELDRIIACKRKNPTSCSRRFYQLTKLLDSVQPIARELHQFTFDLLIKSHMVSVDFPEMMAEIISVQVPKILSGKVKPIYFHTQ

For the molecule `C[C@](O)(Cn1cc(F)cn1)C(=O)Nc1ccc(C#N)c(C(F)(F)F)c1.O=C(O)C(O)C(O)C(=O)O` [1002 tartarate], in data set [1] (setting [9]), the “Serum conc.” value is given as 12.4 nM.
In the case of `C[C@](O)(Cn1ccc2cc(F)ccc21)C(=O)Nc1ccc(C#N)c(C(F)(F)F)c1` [Compound 11], the “HLM Metabolism (H.L. min)” value in data set [2] came to 6 min.
`C[C@](O)(Cn1cc(F)cn1)C(=O)Nc1ccc(C#N)c(C(F)(F)F)c1` [Compound 1002]: in data set [1] (setting [9]), the “Serum conc.” value came out at 9.3 nM.
On to `C[C@](O)(Cn1cc(C(F)(F)F)cn1)C(=O)Nc1ccc(C#N)c(C(F)(F)F)c1` [Compound 1017], for which, in data set [3], the “RLM Metabolism (H.L. min)” value amounted to 400 min. For the same molecule, the “HLM Metabolism (H.L. min)” value in data set [2] was 400 min.
For `C[C@](O)(Cn1cc(F)cn1)C(=O)Nc1cnc(C#N)c(C(F)(F)F)c1` [Compound 1022], the “RLM Metabolism (H.L. min)” value in data set [3] stood at 78 min. Also, the “HLM Metabolism (H.L. min)” value in data set [2] was 82 min. Also, the “Serum conc.” value in data set [1] (setting [9]) is reported as 64 nM; in data set [1] (Table 4, rats, 20 mg/kg), 33 nM.
`C[C@](O)(Cn1cc(C#N)cn1)C(=O)Nc1ccc(C#N)c(C(F)(F)F)c1` [Compound 1048]: the “RLM Metabolism (H.L. min)” value in data set [3] is listed as 86 min. The “HLM Metabolism (H.L. min)” value in data set [2] was 400 min.
In the same order, the values of `C[C@](O)(Cn1cc(Br)c(F)n1)C(=O)Nc1ccc(C#N)c(C(F)(F)F)c1` [Compound 1058, (S)-3-(4-Bromo-3-fluoro-1H-pyrazol-1-yl)-N-(4-cyano-3-(trifluoromethyl)phenyl)-2-hydroxy-2-methylpropanamide] are 400 min and 138 min.
With `C[C@](O)(Cn1cc(C#N)cn1)C(=O)Nc1cnc(C#N)c(C(F)(F)F)c1` [Compound 1065], the “(Prostate) % diff” value in data set [4] (setting [10]) is reported as “.58%”. The “(S.V.) % diff” value in data set [4] (setting [10]) is “.88%”. Moreover, the “Seminal vesicles weight reduction / in vivo AR antagonism, in words” value in data set [4] (20 mg/kg, compared to 1002 or castration) is listed as “full AR antagonism in vivo; also recorded: reached castration levels; also recorded: significantly improved efficacy”. Further, in data set [4] (FIGS. 7C and 7D), the “Prostate weight reduction, improved efficacy compared to 1002” value is given as “approximately 45%”. For the same molecule, the “RLM Metabolism (H.L. min)” value in data set [3] is on record as 84 min. Further, the “HLM Metabolism, % metabolized after 60 min” value in data set [2] (after 60 min) was 10%. For the same molecule, the “HLM Metabolism (H.L. min)” value in data set [2] is “STABLE”. The “Serum conc.” value in data set [1] (Table 4, rats, 20 mg/kg) stood at 561 nM. The “Conc of 1065” value was 81.58 and 87.25 and 120.1244 and 134.5505 and 129.9323 in data set [1] (1 mg/kg, 1 mg/kg); 630.4879 and 691.1901 and 485.4264 and 967.3936 and 798.7984 in data set [1] (5 mg/kg, 5 mg/kg); 637.641 and 915.1312 and 824.8076 and 681.9936 and 795.917 in data set [1] (10 mg/kg, 10 mg/kg); 1286.902 and 1298.179 and 1360.687 and 1397.834 and 1193.986 in data set [1] (20 mg/kg, 20 mg/kg).
Take `C[C@](O)(Cn1cc(Cl)c(Br)n1)C(=O)Nc1ccc(C#N)c(C(F)(F)F)c1` [Compound 1066]: the “RLM Metabolism (H.L. min)” value in data set [3] came to 300 min. For the same molecule, the “HLM Metabolism (H.L. min)” value in data set [2] is 319 min.
On to `C[C@@H](Cn1cc(F)cn1)NC(=O)c1ccc(C#N)c(C(F)(F)F)c1` [Compound 1068, (S)-4-Cyano-N-(1-(4-fluoro-1H-pyrazol-1-yl)propan-2-yl)-3-(trifluoromethyl)benzamide], for which, in data set [5], the “wtAR Binding Ki (nM) (DHT = 1 nM)” value was “no binding”. For the same molecule, inhibition in data set [6] was half-maximal at 417 nM (IC50). Also, the “SARD Activity Full Length % inhibition at 1 μM” value in data set [7] (first of two values in the cell, 1 μM) is 62%. For the same molecule, in data set [7] (second of two values in the cell, 10 μM), the “SARD Activity Full Length % inhibition at 10 μM” value was found to be 96%.
With `CNC(=O)c1ccc(N2C(=S)N(c3ccc(C#N)c(C(F)(F)F)c3)C(=O)C2(C)C)cc1F` [Enzalutamide, reference compound], the “Seminal vesicles weight reduction compared to 1002, in words” value in data set [4] (enzalutamide 30 mg/kg) is “marginally improved”.
Consider `CC(=O)[C@H]1CC[C@H]2[C@@H]3CCC4=CC(=O)CC[C@]4(C)[C@H]3CC[C@]12C` [progesterone], for which the “PR agonism, in words” value in data set [8] is “potent and full efficacy agonist activity”.

The IC50 is the concentration that inhibits the measured activity by half. High values mean weaker potency in that assay, low ones greater potency in that assay.
